Measurements from patent publication US20240391940A1, “FUSED RING-CONTAINING COMPOUND, APPLICATION THEREOF, AND COMPOSITION CONTAINING SAME” (GenEros Biopharma Ltd., priority 2020, published 2024).

Tested on: collagen-induced arthritis (CIA) mouse model
Experiment: Mouse CIA model, repeated for dose exploration (10, 30, 50 mg/kg)
[1] = CIA mice, GEN1-284s 10, 30 and 50 mg/kg qd po

Text: Testing was repeated for dose exploration
The above method was used.

In the case of `O=C(Cc1ccc2ncccc2c1)N1CCC(n2c(=O)n(COP(=O)([O-])[O-])c3cccc(C(F)(F)F)c32)CC1.[Na+].[Na+]` [GEN1-284 salt, (2-Oxo-3-(1-(2-(quinolin-6-yl)acetyl)piperidin-4-yl)-4-(trifluoromethyl)-2,3-dihydro-1H-benzo[d]imidazol-1-yl)methyl disodium phosphate], the “Effect on the score of arthritis” value [1] was “consistently and significantly inhibit the score of arthritis”, the “Score of arthritis compared with the tofacitinib positive group” value [1] was “no significant difference from the tofacitinib positive group” and the Tolerance [1] was “good tolerance”. For the same compound, the “Significance of clinical score vs. Vehicle group (Two-way ANOVA)” value (CIA mice, GEN1-284s 10 mpk, Day 35) was “ns”, the “Significance of clinical score vs. Vehicle group (Two-way ANOVA)” value (CIA mice, GEN1-284s 10 mpk, Day 38) was “ns” and the “Significance of clinical score vs. Vehicle group (Two-way ANOVA)” value (CIA mice, GEN1-284s 10 mpk, Day 40) was “ns”. The “Significance of clinical score vs. Vehicle group (Two-way ANOVA)” value (CIA mice, GEN1-284s 10 mpk, Day 42) was “* (*P < 0.05)”, the “Significance of clinical score vs. Vehicle group (Two-way ANOVA)” value (CIA mice, GEN1-284s 30 mpk, Day 35) was “ns” and the “Significance of clinical score vs. Vehicle group (Two-way ANOVA)” value (CIA mice, GEN1-284s 30 mpk, Day 38) was “** (**P < 0.01)”. For the same compound, the “Significance of clinical score vs. Vehicle group (Two-way ANOVA)” value (CIA mice, GEN1-284s 30 mpk, Day 40) was “* (*P < 0.05)”, the “Significance of clinical score vs. Vehicle group (Two-way ANOVA)” value (CIA mice, GEN1-284s 30 mpk, Day 42) was “* (*P < 0.05)” and the “Significance of clinical score vs. Vehicle group (Two-way ANOVA)” value (CIA mice, GEN1-284s 50 mpk, Day 35) was “* (*P < 0.05)”. For the same compound, the “Significance of clinical score vs. Vehicle group (Two-way ANOVA)” value (CIA mice, GEN1-284s 50 mpk, Day 38) was “** (**P < 0.01)”, the “Significance of clinical score vs. Vehicle group (Two-way ANOVA)” value (CIA mice, GEN1-284s 50 mpk, Day 40) was “** (**P < 0.01)” and the “Significance of clinical score vs. Vehicle group (Two-way ANOVA)” value (CIA mice, GEN1-284s 50 mpk, Day 42) was “** (**P < 0.01)”. The “Changes in body weight, Mean ± SEM” value (G3 GEN1-284s 10 mg/kg, Day 21) was 20.64 ± 0.17, the “Clinical scores, Mean ± SEM” value (G3 GEN1-284s 10 mg/kg, Day 21) was 0.0 ± 0.00 and the “Changes in body weight, Mean ± SEM” value (G3 GEN1-284s 10 mg/kg, Day 24) was 20.40 ± 0.28. The “Clinical scores, Mean ± SEM” value (G3 GEN1-284s 10 mg/kg, Day 24) was 0.0 ± 0.00, the “Changes in body weight, Mean ± SEM” value (G3 GEN1-284s 10 mg/kg, Day 26) was 20.19 ± 0.41 and the “Clinical scores, Mean ± SEM” value (G3 GEN1-284s 10 mg/kg, Day 26) was 0.3 ± 0.16. The “Changes in body weight, Mean ± SEM” value (G3 GEN1-284s 10 mg/kg, Day 28) was 19.34 ± 0.52, the “Clinical scores, Mean ± SEM” value (G3 GEN1-284s 10 mg/kg, Day 28) was 0.6 ± 0.18 and the “Changes in body weight, Mean ± SEM” value (G3 GEN1-284s 10 mg/kg, Day 31) was 18.89 ± 0.44. For the same compound, the “Clinical scores, Mean ± SEM” value (G3 GEN1-284s 10 mg/kg, Day 31) was 2.5 ± 0.57, the “Changes in body weight, Mean ± SEM” value (G3 GEN1-284s 10 mg/kg, Day 33) was 18.65 ± 0.48 and the “Clinical scores, Mean ± SEM” value (G3 GEN1-284s 10 mg/kg, Day 33) was 4.1 ± 0.99. For the same compound, the “Changes in body weight, Mean ± SEM” value (G3 GEN1-284s 10 mg/kg, Day 35) was 19.04 ± 0.47, the “Clinical scores, Mean ± SEM” value (G3 GEN1-284s 10 mg/kg, Day 35) was 5.6 ± 1.29 and the “Changes in body weight, Mean ± SEM” value (G3 GEN1-284s 10 mg/kg, Day 38) was 19.54 ± 0.38. The “Clinical scores, Mean ± SEM” value (G3 GEN1-284s 10 mg/kg, Day 38) was 6.9 ± 1.55, the “Changes in body weight, Mean ± SEM” value (G3 GEN1-284s 10 mg/kg, Day 40) was 19.85 ± 0.28 and the “Clinical scores, Mean ± SEM” value (G3 GEN1-284s 10 mg/kg, Day 40) was 7.5 ± 1.69. The “Changes in body weight, Mean ± SEM” value (G3 GEN1-284s 10 mg/kg, Day 42) was 19.90 ± 0.31, the “Clinical scores, Mean ± SEM” value (G3 GEN1-284s 10 mg/kg, Day 42) was 7.9 ± 1.79 and the “Clinical scores: significance vs. solvent control group, two-way ANOVA” value (G3 GEN1-284s 10 mg/kg, Day 42) was “* (* p <0.05)”. For the same compound, the “Changes in body weight, Mean ± SEM” value (G4 GEN1-284s 30 mg/kg, Day 21) was 20.25 ± 0.34, the “Clinical scores, Mean ± SEM” value (G4 GEN1-284s 30 mg/kg, Day 21) was 0.0 ± 0.00 and the “Changes in body weight, Mean ± SEM” value (G4 GEN1-284s 30 mg/kg, Day 24) was 19.74 ± 0.33. The “Clinical scores, Mean ± SEM” value (G4 GEN1-284s 30 mg/kg, Day 24) was 0.0 ± 0.00, the “Changes in body weight, Mean ± SEM” value (G4 GEN1-284s 30 mg/kg, Day 26) was 19.79 ± 0.34 and the “Clinical scores, Mean ± SEM” value (G4 GEN1-284s 30 mg/kg, Day 26) was 0.3 ± 0.16. For the same compound, the “Changes in body weight, Mean ± SEM” value (G4 GEN1-284s 30 mg/kg, Day 28) was 19.48 ± 0.54, the “Clinical scores, Mean ± SEM” value (G4 GEN1-284s 30 mg/kg, Day 28) was 0.6 ± 0.18 and the “Changes in body weight, Mean ± SEM” value (G4 GEN1-284s 30 mg/kg, Day 31) was 19.20 ± 0.56. The “Clinical scores, Mean ± SEM” value (G4 GEN1-284s 30 mg/kg, Day 31) was 2.1 ± 0.69.
